In patent US20200261391A1, “METHODS OF REDUCING THE RISK OF A CARDIOVASCULAR EVENT IN A STATIN-TREATED SUBJECT BY INCREASING SERUM AND PLASMA EPA AND DPA LEVELS” (Amarin Pharmaceuticals Ireland Limited, priority 2019, published 2020):

System: TG, non-HDL-C, LDL-C, HDL-C, apo B, hsCRP
Assay: REDUCE-IT trial: fasting lipid, lipoprotein and inflammatory marker data over time
Format: in vivo, human
Description: Fasting Lipid Profile: The fasting lipid panel included: TG, TC, LDL-C, HDL-C, non-HDL-C, and VLDL-C. At all visits, LDL-C was calculated using the Friedewald equation. At Visit 1 and Visit 1.1 direct LDL-C were used if at the same visit TG>400 mg/dL (4.52 mmol/L). These LDL-C values were used for the evaluation of the LDL-C inclusion criterion (LDL-C qualifying measurements for randomization) and for the assessment of changes in the statin therapy when LDL-C was not at goal. […] In addition, irrespective of the TG levels, at Visit 2 (0 Months of Follow-up, baseline) and at Visit 4 (12 Months of Follow-up), LDL-C were measured by preparative ultracentrifugation. These preparative ultracentrifugation LDL-C measurements were used in the statistical analysis including the calculation of the percent change from baseline (1 year versus baseline). Hopkins LDL-C was calculated for each visit.
Biomarkers Assays: The biomarker assays included: hsCRP, Apo B and hsTnT.
The fasting lipid panel was tested at Screening (Visit 1 or Visit 1.1), Randomization visit (Visit 2; Day 0), Visit 3 (Day 120; ˜4 Months) and all other follow-up visits including the last visit. For change from baseline to 1 year preparative ultracentrifugation measurements for LDL-C were analyzed, unless this value was missing. If the LDL-C preparative ultracentrifugation values were missing, then another LDL-C value was used, with prioritization of values obtained from LDL-C Direct measurements, followed by LDL-C derived by the Friedewald calculation (only for subjects with TG<400 mg/dL), and finally LDL-C derived using the calculation published by Hopkins University investigators (Martin S S, Blaha M J, Elshazly M B, et al. Comparison of a novel method vs the Friedewald equation for estimating low-density lipoprotein cholesterol levels from the standard lipid profile. JAMA. 2013; 310:2061-8.). In addition, change from baseline to day 120 in LDL-C utilizing Friedewald's and Hopkins methods was analyzed, using the arithmetic mean of LDL-C obtained at Visit 2 (Day 0) and the preceding Visit 1 (or Visit 1.1). If one of these values was missing, the single available LDL-C value was used. LDL-C according to Hopkins was calculated at each visit.
The randomization visit was considered Baseline. If a baseline value was not available from the randomization visit, then the latest screening value was used. For measurements of lipids, lipoproteins and inflammatory markers, the change and the percent change were summarized at each visit. Since these biomarkers are typically not normally distributed, the Wilcoxon rank-sum test was used for treatment comparisons of the percent change from baseline, and medians and quartiles were provided for each treatment group. The medians of the differences between the treatment groups and 95% CIs were estimated with the Hodges-Lehmann method. In addition, shift-tables were generated as appropriate.

CC/C=C\C/C=C\C/C=C\C/C=C\C/C=C\CCCC(=O)OCC [icosapent ethyl, eicosapentaenoic acid ethyl ester]
Apo B Median % Change from Baseline (Last Visit): −2.5% | Apo B Median Absolute Change from Baseline (Last Visit): -2.0 mg/dL | Apo B Median Observed Value (Last Visit): 80.0 mg/dL | HDL-C Median % Change from Baseline (Last Visit): 2.5% | HDL-C Median Absolute Change from Baseline (Last Visit): 1.0 mg/dL | HDL-C Median Observed Value (Last Visit): 41.0 mg/dL | LDL-C Hopkins Median % Change from Baseline (Last Visit): −1.2% | LDL-C Hopkins Median Absolute Change from Baseline (Last Visit): -1.0 mg/dL | LDL-C Hopkins Median Observed Value (Last Visit): 84.0 mg/dL | LDL-C derived Median % Change from Baseline (Last Visit): 3.1% | LDL-C derived Median Absolute Change from Baseline (Last Visit): 2.0 mg/dL | LDL-C derived Median Observed Value (Last Visit): 77.0 mg/dL | Log hsCRP Median % Change from Baseline (Last Visit): −23.1% | Log hsCRP Median Absolute Change from Baseline (Last Visit): −0.1 mg/L | Log hsCRP Median Observed Value (Last Visit): 0.6 mg/L | Non-HDL-C Median % Change from Baseline (Last Visit): −4.4% | Non-HDL-C Median Absolute Change from Baseline (Last Visit): -5.0 mg/dL | Non-HDL-C Median Observed Value (Last Visit): 112.0 mg/dL | Triglycerides Median % Change from Baseline (Last Visit): −21.6% | Triglycerides Median Absolute Change from Baseline (Last Visit): -45.0 mg/dL | Triglycerides Median Observed Value (Last Visit): 170.0 mg/dL | hsCRP Median % Change from Baseline (Last Visit): −12.6% | hsCRP Median Absolute Change from Baseline (Last Visit): -0.2 mg/L | hsCRP Median Observed Value (Last Visit): 1.8 mg/L | Apo B Between Group Difference Median % Change from Baseline (Last Visit, vs placebo): −6.7% | Apo B Between Group Difference Median Absolute Change from Baseline (Last Visit, vs placebo): -5.0 mg/dL | HDL-C Between Group Difference Median % Change from Baseline (Last Visit, vs placebo): −3.0% | HDL-C Between Group Difference Median Absolute Change from Baseline (Last Visit, vs placebo): -1.0 mg/dL | LDL-C Hopkins Between Group Difference Median % Change from Baseline (Last Visit, vs placebo): −7.4% | LDL-C Hopkins Between Group Difference Median Absolute Change from Baseline (Last Visit, vs placebo): -6.2 mg/dL | LDL-C derived Between Group Difference Median % Change from Baseline (Last Visit, vs placebo): −6.6% | LDL-C derived Between Group Difference Median Absolute Change from Baseline (Last Visit, vs placebo): -5.0 mg/dL | Log hsCRP Between Group Difference Median % Change from Baseline (Last Visit, vs placebo): −21.2% | Log hsCRP Between Group Difference Median Absolute Change from Baseline (Last Visit, vs placebo): −0.4 mg/L | Non-HDL-C Between Group Difference Median % Change from Baseline (Last Visit, vs placebo): −8.6% | Non-HDL-C Between Group Difference Median Absolute Change from Baseline (Last Visit, vs placebo): -10.0 mg/dL | Triglycerides Between Group Difference Median % Change from Baseline (Last Visit, vs placebo): −14.1% | Triglycerides Between Group Difference Median Absolute Change from Baseline (Last Visit, vs placebo): -32.0 mg/dL | hsCRP Between Group Difference Median % Change from Baseline (Last Visit, vs placebo): −37.6% | hsCRP Between Group Difference Median Absolute Change from Baseline (Last Visit, vs placebo): -0.8 mg/L | HDL-C Median % Change from Baseline (Month 4): −2.8% | HDL-C Median Absolute Change from Baseline (Month 4): -1.0 mg/dL | HDL-C Median Observed Value (Month 4): 39.0 mg/dL | LDL-C Hopkins Median % Change from Baseline (Month 4): −2.0% | LDL-C Hopkins Median Absolute Change from Baseline (Month 4): -1.6 mg/dL | LDL-C Hopkins Median Observed Value (Month 4): 83.6 mg/dL | Non-HDL-C Median % Change from Baseline (Month 4): −4.0% | Non-HDL-C Median Absolute Change from Baseline (Month 4): -4.5 mg/dL | Non-HDL-C Median Observed Value (Month 4): 113.0 mg/dL | Triglycerides Median % Change from Baseline (Month 4): −18.6% | Triglycerides Median Absolute Change from Baseline (Month 4): -37.5 mg/dL | Triglycerides Median Observed Value (Month 4): 177.0 mg/dL | HDL-C Between Group Difference Median % Change from Baseline (Month 4, vs placebo): −7.2% | HDL-C Between Group Difference Median Absolute Change from Baseline (Month 4, vs placebo): -3.0 mg/dL | LDL-C Hopkins Between Group Difference Median % Change from Baseline (Month 4, vs placebo): −10.3% | LDL-C Hopkins Between Group Difference Median Absolute Change from Baseline (Month 4, vs placebo): -8.7 mg/dL | Non-HDL-C Between Group Difference Median % Change from Baseline (Month 4, vs placebo): −12.2% | Non-HDL-C Between Group Difference Median Absolute Change from Baseline (Month 4, vs placebo): -14.3 mg/dL | Triglycerides Between Group Difference Median % Change from Baseline (Month 4, vs placebo): −20.1% | Triglycerides Between Group Difference Median Absolute Change from Baseline (Month 4, vs placebo): -45.5 mg/dL | HDL-C Median % Change from Baseline (Year 1): −2.6% | HDL-C Median Absolute Change from Baseline (Year 1): -1.0 mg/dL | HDL-C Median Observed Value (Year 1): 39.0 mg/dL | LDL-C Hopkins Median % Change from Baseline (Year 1): −1.2% | LDL-C Hopkins Median Absolute Change from Baseline (Year 1): -1.1 mg/dL | LDL-C Hopkins Median Observed Value (Year 1): 85.3 mg/dL | LDL-C derived Median % Change from Baseline (Year 1): 3.1% | LDL-C derived Median Absolute Change from Baseline (Year 1): 2.0 mg/dL | LDL-C derived Median Observed Value (Year 1): 77.0 mg/dL | Non-HDL-C Median % Change from Baseline (Year 1): −3.6% | Non-HDL-C Median Absolute Change from Baseline (Year 1): -4.0 mg/dL | Non-HDL-C Median Observed Value (Year 1): 113.0 mg/dL | Triglycerides Median % Change from Baseline (Year 1): −18.3% | Triglycerides Median Absolute Change from Baseline (Year 1): -39.0 mg/dL | Triglycerides Median Observed Value (Year 1): 175.0 mg/dL | HDL-C Between Group Difference Median % Change from Baseline (Year 1, vs placebo): −6.3% | HDL-C Between Group Difference Median Absolute Change from Baseline (Year 1, vs placebo): -2.5 mg/dL | LDL-C Hopkins Between Group Difference Median % Change from Baseline (Year 1, vs placebo): −11.4% | LDL-C Hopkins Between Group Difference Median Absolute Change from Baseline (Year 1, vs placebo): -9.6 mg/dL | LDL-C derived Between Group Difference Median % Change from Baseline (Year 1, vs placebo): −6.6% | LDL-C derived Between Group Difference Median Absolute Change from Baseline (Year 1, vs placebo): -5.0 mg/dL | Non-HDL-C Between Group Difference Median % Change from Baseline (Year 1, vs placebo): −13.1% | Non-HDL-C Between Group Difference Median Absolute Change from Baseline (Year 1, vs placebo): -15.5 mg/dL | Triglycerides Between Group Difference Median % Change from Baseline (Year 1, vs placebo): −19.7% | Triglycerides Between Group Difference Median Absolute Change from Baseline (Year 1, vs placebo): -44.5 mg/dL | Apo B Median Year 1 (Year 1 in Table 18): 80.0 mg/dL | hsCRP Median Year 1 (Year 1 in Table 18): 1.8 mg/L | Apo B Median Between Group Difference at Year 1, % Change from Baseline (Year 1 in Table 18, vs placebo): −9.7% | Apo B Median Between Group Difference at Year 1, Absolute Change from Baseline (Year 1 in Table 18, vs placebo): -8.0 mg/dL | hsCRP Median Between Group Difference at Year 1, % Change from Baseline (Year 1 in Table 18, vs placebo): −39.9% | hsCRP Median Between Group Difference at Year 1, Absolute Change from Baseline (Year 1 in Table 18, vs placebo): -0.9 mg/L | Apo B Median % Change from Baseline (Year 2): −2.5% | Apo B Median Absolute Change from Baseline (Year 2): -2.0 mg/dL
